Experimental data: the NIST ThermoML archive (doi:10.1016/j.jct.2009.05.008)
± gives the expanded uncertainty stated by the source.

Legend:
[1] = refractive index (Na D-line) (dimensionless); details: 298.15 K; 101.33 kPa; Liquid; Standard Abbe refractometry
[2] = 298.15 K; 101.33 kPa; Liquid; Vibrating tube method

refractive index [1]: 1.50591 ± 0.00075 | mass density [2]: 1219.61 ± 1.1 kg/m3
Structure (SMILES): CCOS(=O)(=O)[O-].CC[n+]1cccc(C)c1 [1-ethyl-3-methylpyridinium ethylsulfate]
